Experimental data published in patent US8088951B2, “Epigenetic mechanisms re-establish access to long-term memory after neuronal loss” (Massachusetts Institute of Technology, priority 2006, dated 2012).
Entries after “also recorded” stand apart in the source; their conditions may differ.

What was measured:
Type in all cases: in vivo
C57BL/6J mice = assay: Contextual fear conditioning (associative learning) in wild type mice; conditions: for freezing behavior during the memory test: test 24 h later
Text: (§1) Learning tests: All behavioral testing is described in Fischer et al. (3).
Mechanism underlying EE. Other than a few genes involved in synaptic function, relatively little is known about the mechanism underlying EE (12-14). Since histone acetylation, an epigenetic mechanism regulating gene expression via chromatin remodeling, has recently been implicated in synaptic plasticity and learning behavior (15-18), the induction of a transcriptional program by EE that leads to activation of plasticity genes was evaluated. Wild type mice were subjected to EE and hippocampal and cortical brain lysates were obtained 3, 24 h or 2 weeks later (n=3/group) by acid extraction and probed with antibodies detecting histone-tail modification that indicate active chromatin. Increases in hippocampal H3 (K-9, K14) and H4 (K-5) and in cortical H3 (K-9) and H4 (K-5) acetylation were observed. […] No changes in H4 acetylation were observed when the Ac-H4 (K,8,12,16) antibody was used, which is likely due to the fact that H4-K16 is a marker of condensed chromatin. EE induced hippocampal and cortical histone 3 (H3) and histone 4 (H4) acetylation and […] as soon as 3 hours after treatment (FIGS. 3a, b). […] To investigate whether inhibition of HDACs mimics the effects of EE, SB was administered daily [ip] into wild type mice for 4 weeks (FIG. 3c). […] Two days after the last injection mice were trained in the fear conditioning paradigm. […] Locomotor activity or basal anxiety was not altered in SB-injected mice (FIG. 8c).
The effect of sodiumbutyrate injection on learning, basal anxiety, explorative behavior and brain plasticity. C57BL/6J mice were subjected to fear conditioning and injected intraperitoneally [ip] with 1.2 g/kg sodiumbutyrate (SB, n=8) or saline (vehicle; n=8) immediately afterwards. […] C57BL/6J mice were implanted with microcannulae into the lateral brain ventricles (icv) and injected with either 100 ng SB, 50 ng TSA or vehicle immediately after fear conditioning (n=8/group). […] C57BL/6J were daily injected [ip] with SB or saline (n=8/group) for 4 weeks before all mice were subjected to the elevated plus maze and open field test. […] Immunoblots were quantified relative to the optical density of the vehicle-group (set to 1). […] The analysis was performed as described under FIG. 1g.
The effects of SAHA and MS-275, relative to sodium butyrate (SB), on the hippocampus dependent associative learning in wildtype mice.
Mice were injected 10 days with either 5 mg/kg of MS275 or 25 mg/kg of UW_WT-I—06 or UW_WT-I—05 before training and memory tests as described above. […] Andorfer, C. et al. Cell-cycle reentry and cell death in transgenic mice expressing nonmutant human tau isoforms. J neurosci 25, 5446-5454 (2005). • 2. Santacruz, K. et al. Tau suppression in a neurodegenerative mouse model improves memory function. Science 309, 476-481 (2005). • 3. Fischer, A., Sananbenesi, F., Pang, P. T., Lu, B. & Tsai, L. H. Opposing roles of transient and prolonged expression of p25 in synaptic plasticity and hippocampus-dependent memory. Neuron 48, 825-838 (2005). • 4. Cruz, J. C. & Tsai, L. H. Jekyll and Hyde kinase: roles for Cdk5 in brain development and disease. Curr Opin Neurobiol. 14, 390-394 (2004). • 5. Cruz, J. C., Tseng, H. C., Goldman, J. A., Shih, H. & Tsai, L. H. Aberrant Cdk5 activation by p25 triggers pathological events leading to neurodegeneration and neurofibrillary tangles. Neuron 40, 471-83 (2003). • 6. Nithianantharajah, J. & Hannan, A. J. Enriched environments, experience-dependent plasticity and disorders of the nervous system. Nat Rev Neurosci 7, 697-709 (2006). • 7. Kim, J. J. & Fanselow, M. S. Modality-specific retrograde amnesia of fear. Science 256, 675-7 (1992). • 8. Gilmore, E. C. & Herrup, K. Neocortical cell migration: GABAergic neurons and cells in layers I and VI move in a cyclin-dependent kinase 5-independent manner. J Neurosci 21, 9690-700 (2001). • 9. […]

CK-p25 Tg mice [1] = assay: Fear conditioning learning in CK-p25 Tg mice after neurodegeneration; conditions: 6 weeks p25 induction, then daily 1.2 g/kg for 4 weeks, vs saline, P=0.009
Text: as §1
(§2) Reinstatement of learning behavior through inhibition of HDAC. Whether sustained inhibition of HDACs would reinstate learning behavior and recover access to long-term memories in CK-p25 Tg mice that had developed synaptic and neuronal loss was investigated. P25 was induced in 11 month old CK-p25 Tg mice for 6 weeks. Afterwards p25 expression was repressed and one group of CK-p25 Tg mice was subjected to daily sodiumbutyrate (SB) injection (1.2 g/kg) for 4 weeks (n=9), whereas the other group received saline injection (n=9). […] To this end p25 expression was induced in 11-month old CK-p25 mice for 6 weeks, before one group was injected daily for 4 weeks with SB whereas the control group received saline injection (FIG. 4a).

CK-p25 Tg mice [2] = assay: Water maze learning in CK-p25 Tg mice after neurodegeneration; conditions: 6 weeks p25 induction, then daily 1.2 g/kg for 4 weeks, vs vehicle, P<0.0001
Text: as §1, §2

CK-p25 Tg mice [3] = assay: Recovery of long-term spatial memories in CK-p25 Tg mice (water maze reminder-training); conditions: daily injection after 6 weeks p25 expression
Text: Recovery of spatial memories upon environmental enrichment and sodiumbutyrate injection. CK-p25 Tg mice in which p25 expression was repressed and control mice were trained in the water maze paradigm until all mice reliably found the hidden platform. Afterwards all mice were returned to their home cages for 4 weeks to allow the consolidation of hippocampus independent long-term memories. Afterwards p25 expression was induced for 6 weeks, followed by p25 repression. […] To measure the retrieval of long-term memory mice were instead exposed to only 2 reminder-training sessions on a single day. […] The recovery of spatial memories upon environmental enrichment was evaluated by a similar experiment, except that after 6 weeks of p25 expression mice were either subjected to EE or returned to their home cages for 4 weeks. […] To evaluate the recovery of spatial memories upon SB injection, a similar experiment was performed as described above, but instead of EE, one group of CK-p25 Tg mice (n=10) received daily injection of SB, whereas the other group was injected with vehicle (n=10).

Compound: CCCC(=O)[O-].[Na+] [SB, sodiumbutyrate]
- freezing during the memory test (C57BL/6J mice; daily ip 1.2 g/kg for 4 weeks, trained two days after last injection, tested 24 h later, P<0.0001): more freezing during the memory test
- freezing behavior during the memory test (C57BL/6J mice; icv 100 ng SB or 50 ng TSA immediately after fear conditioning, P<0.0001): more freezing behavior than vehicle injected mice
- freezing behavior during the memory test (C57BL/6J mice; single ip 1.2 g/kg immediately after fear conditioning, P<0.0001): significantly more freezing behavior
- associative learning (C57BL/6J mice; wild type mice, intraperitoneal [ip] and intracerebroventricular [icv] injections): significantly facilitated associative learning
- associative learning, contextual fear conditioning paradigm (C57BL/6J mice; wildtype mice, chronic treatment for 10-21 days): facilitates contextual fear conditioning learning
- associative learning (freezing behavior) (CK-p25 Tg mice [1]): significantly enhanced
- spatial learning (escape latency) (CK-p25 Tg mice [2]): significantly shorter escape latency
- recovery of long-term spatial memories (CK-p25 Tg mice [3]): leads to the recovery of long-term spatial memories; also recorded: spatial long-term memories recover after neuronal loss
